# Measured values: article PMC7391767, “Molecular mechanisms underlying menthol binding and activation of TRPM8 ion channel” (Nature Communications, 2020)
# Where “and” joins values, the source holds several entries; their conditions need not be identical. Identical values can stand only once.
# Key:
# Format in all cases: cell-based
# Parameters in all cases: Shifts in ANAP emission, Ave: unit: nm
# ANAP-incorporated TRPM8 [1] = molecular target: T1, ANAP-incorporated TRPM8 (Mus musculus, UniProt Q8R4D5, N947X); conditions: ANAP incorporation site N947
# T1 construct: expressed in transfected cells; host or cells: HEK293 cells, co-transfected with the pANAP vector
# Protocol: (§1) As fluorescence emission peak of ANAP shifts to a longer wavelength in more hydrophilic environment, we measured the shift in ANAP emission peak to report conformational changes. Fluorescence properties of ANAP may also be affected by other factors such as temperature and pH[31], so we performed our ANAP experiments always at room temperature (22 ± 1°C). To control for changes in solution pH, we added 3 mM HEPES in ANAP imaging solution to buffer the pH at 7.2. We genetically integrated ANAP into a specific site on TRPM8 with special tRNA and synthetase encoded by pANAP vector (Fig. 5d).
# (§2) L-ANAP methyl ester was purchased from AsisChem. pANAP vector was purchased from Addgene. ANAP was incorporated into TRPM8 by introducing a TAG amber stop codon mutation as previously reported. Briefly, after co-transfection of both TRPM8 and pANAP vectors, ANAP was directly added to the culture medium to the final concentration of 20 µM. After 1–2 days, ANAP-containing culture medium was completely changed. Cells were further cultured in ANAP-free medium overnight before experiments.
# (§3) ANAP fluorescence was excited by the Ar laser with a 375/28 excitation filter, a T400lp dichroic mirror, and a 435LP emission filter on an inverted fluorescence microscope (Nikon TE2000-U) using a ×40 oil-immersion objective (NA 1.3). Emission spectrum of ANAP was imaged with an Acton SpectraPro 2150i spectrograph in conjunction with an optiMOS CCD camera (Qimaging, USA). We determined the ANAP emission peak value by fitting the emission spectrum with a skewed Gauss distribution in Igor Pro version 6.1 (WaveMatrix), and then the difference in emission peak values measured in the absence and presence of menthol was reported as the shift of ANAP emission.
# ANAP-incorporated TRPM8 [2] = molecular target: T2, ANAP-incorporated TRPM8 (Mus musculus, UniProt Q8R4D5, L939X)
# T2 construct: expressed in transfected cells; host or cells: HEK293 cells, co-transfected with the pANAP vector
# Protocol: as §1, §2, §3
# ANAP-incorporated TRPM8 [3] = molecular target: T3, ANAP-incorporated TRPM8 (Mus musculus, UniProt Q8R4D5, S820X); conditions: ANAP incorporation site S820; average shift, menthol activated vs resting state
# T3 construct: expressed in transfected cells; host or cells: HEK293 cells, co-transfected with the pANAP vector
# Protocol: as §1, §2, §3
# ANAP-incorporated TRPM8 [4] = molecular target: T4, ANAP-incorporated TRPM8 (Mus musculus, UniProt Q8R4D5, D920X)
# T4 construct: expressed in transfected cells; host or cells: HEK293 cells, co-transfected with the pANAP vector
# Protocol: as §1, §2, §3
# ANAP-incorporated TRPM8 [5] = molecular target: T5, ANAP-incorporated TRPM8 (Mus musculus, UniProt Q8R4D5, Q894X); conditions: ANAP incorporation site Q894
# T5 construct: expressed in transfected cells; host or cells: HEK293 cells, co-transfected with the pANAP vector
# Protocol: as §1, §2, §3
# ANAP-incorporated TRPM8 [6] = molecular target: T6, ANAP-incorporated TRPM8 (Mus musculus, UniProt Q8R4D5, Y787X); conditions: ANAP incorporation site Y787, menthol activated vs resting state
# T6 construct: expressed in transfected cells; host or cells: HEK293 cells, co-transfected with the pANAP vector
# Protocol: as §1, §2, §3
# ANAP-incorporated TRPM8 [7] = molecular target: T7, ANAP-incorporated TRPM8 (Mus musculus, UniProt Q8R4D5, P734X); conditions: ANAP incorporation site P734; average shift, menthol activated vs resting state
# T7 construct: expressed in transfected cells; host or cells: HEK293 cells, co-transfected with the pANAP vector
# Protocol: as §1, §2, §3
# ANAP-incorporated TRPM8 [8] = molecular target: T8, ANAP-incorporated TRPM8 (Mus musculus, UniProt Q8R4D5, S824X)
# T8 construct: expressed in transfected cells; host or cells: HEK293 cells, co-transfected with the pANAP vector
# Protocol: as §1, §2, §3
# ANAP-incorporated TRPM8 [9] = molecular target: T9, ANAP-incorporated TRPM8 (Mus musculus, UniProt Q8R4D5, S823X); conditions: ANAP incorporation site S823
# T9 construct: expressed in transfected cells; host or cells: HEK293 cells, co-transfected with the pANAP vector
# Protocol: as §1, §2, §3
# ANAP-incorporated TRPM8 [10] = molecular target: T10, ANAP-incorporated TRPM8 (Mus musculus, UniProt Q8R4D5, F847X); conditions: ANAP incorporation site F847
# T10 construct: expressed in transfected cells; host or cells: HEK293 cells, co-transfected with the pANAP vector
# Protocol: as §1, §2, §3
# ANAP-incorporated TRPM8 [11] = molecular target: T11, ANAP-incorporated TRPM8 (Mus musculus, UniProt Q8R4D5, W898X); conditions: ANAP incorporation site W898
# T11 construct: expressed in transfected cells; host or cells: HEK293 cells, co-transfected with the pANAP vector
# Protocol: as §1, §2, §3
# ANAP-incorporated TRPM8 [12] = molecular target: T12, ANAP-incorporated TRPM8 (Mus musculus, UniProt Q8R4D5, S921X); conditions: ANAP incorporation site S921
# T12 construct: expressed in transfected cells; host or cells: HEK293 cells, co-transfected with the pANAP vector
# Protocol: as §1, §2, §3
# ANAP-incorporated TRPM8 [13] = molecular target: T13, ANAP-incorporated TRPM8 (Mus musculus, UniProt Q8R4D5, Y924X); conditions: ANAP incorporation site Y924
# T13 construct: expressed in transfected cells; host or cells: HEK293 cells, co-transfected with the pANAP vector
# Protocol: as §1, §2, §3
# ANAP-incorporated TRPM8 [14] = molecular target: T14, ANAP-incorporated TRPM8 (Mus musculus, UniProt Q8R4D5, C1006X); conditions: ANAP incorporation site C1006; average shift, menthol activated vs resting state
# T14 construct: expressed in transfected cells; host or cells: HEK293 cells, co-transfected with the pANAP vector
# Protocol: as §1, §2, §3
# ANAP-incorporated TRPM8 [15] = molecular target: T15, ANAP-incorporated TRPM8 (Mus musculus, UniProt Q8R4D5, I962X); conditions: ANAP incorporation site I962, menthol activated vs resting state
# T15 construct: expressed in transfected cells; host or cells: HEK293 cells, co-transfected with the pANAP vector
# Protocol: as §1, §2, §3
# [16] = average shift, menthol activated vs resting state
smiles,measurement,setting,value
"CC(C)[C@@H]1CC[C@@H](C)C[C@H]1O [menthol, (−)-menthol]",Shifts_ave,ANAP-incorporated TRPM8 [1]; [16],0.33 nm
same,Emission Peak at menthol activated state,ANAP-incorporated TRPM8 [1]; single measurement,485.99 nm and 482.4 nm and 486.05 nm and 485.2 nm and 481.1 nm
same,"Shifts in ANAP emission, Ave",ANAP-incorporated TRPM8 [2]; ANAP at L939,2.11
same,Shifts_ave,"ANAP-incorporated TRPM8 [2]; ANAP incorporation site L939, average shift, menthol activated vs resting state",2.11 nm
same,Shifts in emission,"ANAP-incorporated TRPM8 [2]; ANAP incorporation site L939, menthol activated vs resting state, single measurement",2.38 nm and 1.56 nm and 2.39 nm
same,Emission Peak at menthol activated state,"ANAP-incorporated TRPM8 [2]; ANAP incorporation site L939, single measurement",484.67 nm and 488.02 nm and 485.09 nm
same,Shifts_ave,ANAP-incorporated TRPM8 [3],0.28 nm
same,"Shifts in ANAP emission, Ave",ANAP-incorporated TRPM8 [4]; ANAP at D920,3.47
same,Shifts_ave,"ANAP-incorporated TRPM8 [4]; ANAP incorporation site D920, average shift, menthol activated vs resting state",3.47 nm
same,Emission Peak at menthol activated state,"ANAP-incorporated TRPM8 [4]; ANAP incorporation site D920, single measurement",488.12 nm and 482.56 nm
same,Shifts_ave,ANAP-incorporated TRPM8 [5]; [16],1.82 nm
same,Emission Peak at menthol activated state,ANAP-incorporated TRPM8 [5]; single measurement,487.18 nm and 484.04 nm and 488.11 nm and 490.92 nm and 483.4 nm
same,Shifts_ave,ANAP-incorporated TRPM8 [6]; average shift,1.928 nm
same,Shifts in emission,ANAP-incorporated TRPM8 [6]; single measurement,1.56 nm and 1.57 nm and 2.4 nm and 1.35 nm and 2.69 nm and 2 nm
same,Shifts_ave,ANAP-incorporated TRPM8 [7],1.477 nm
same,"Shifts in ANAP emission, Ave",ANAP-incorporated TRPM8 [8]; ANAP at S824,2.89
same,Shifts_ave,"ANAP-incorporated TRPM8 [8]; ANAP incorporation site S824, average shift, menthol activated vs resting state",2.90 nm
same,Emission Peak at menthol activated state,"ANAP-incorporated TRPM8 [8]; ANAP incorporation site S824, single measurement",488.12 nm and 482.56 nm and 490.74 nm
same,Shifts_ave,ANAP-incorporated TRPM8 [9]; [16],0.97 nm
same,Emission Peak at menthol activated state,ANAP-incorporated TRPM8 [9]; single measurement,488.83 nm and 484.77 nm and 484.58 nm and 485.28 nm
same,Shifts_ave,ANAP-incorporated TRPM8 [10]; [16],-1.40 nm
same,Emission Peak at menthol activated state,ANAP-incorporated TRPM8 [10]; single measurement,476.81 nm and 476.91 nm and 474.92 nm and 474.75 nm and 473.64 nm
same,Shifts_ave,ANAP-incorporated TRPM8 [11]; [16],-1.33 nm
same,Emission Peak at menthol activated state,ANAP-incorporated TRPM8 [11]; single measurement,483.12 nm and 481.69 nm and 486.71 nm and 481.28 nm
same,Shifts_ave,ANAP-incorporated TRPM8 [12]; [16],1.07 nm
same,Shifts in emission,"ANAP-incorporated TRPM8 [12]; menthol activated vs resting state, single measurement",1.34 nm and 1.13 nm and 1.09 nm and 0.99 nm and 0.8 nm
same,Emission Peak at menthol activated state,ANAP-incorporated TRPM8 [12]; single measurement,493.48 nm and 489.7 nm and 490.23 nm and 494.29 nm and 493.18 nm
same,Shifts_ave,ANAP-incorporated TRPM8 [13]; [16],-0.72 nm
same,Emission Peak at menthol activated state,ANAP-incorporated TRPM8 [13]; single measurement,483.26 nm and 481.78 nm and 474.51 nm and 486.54 nm
same,Shifts_ave,ANAP-incorporated TRPM8 [14],1.09 nm
same,Shifts_ave,ANAP-incorporated TRPM8 [15]; average shift,1.07 nm
same,Shifts in emission,ANAP-incorporated TRPM8 [15]; single measurement,1.34 nm and 1.4 nm and 0.73 nm and 0.79 nm
